What was measured:
CYP 2C9 = target: T1, CYP 2C9 (Homo sapiens, UniProt P11712); experiment: CYP inhibition in human liver microsomes (CYP2C9); format: in vitro ADME; conditions: hydroxylation of diclofenac, read-out: predicted IC50, CYP 2C9
T1 construct: assessed in human liver microsomes (procured from GIBCO Invitrogen); tissue GIBCO Invitrogen; host or cells: human liver microsomes
Protocol: (§1) CYP inhibition potential of compound was assessed in human liver microsomes (procured from GIBCO Invitrogen) against CYP3A4, 2D6, 2C9, 2C19 and 1A2 in the following sequential steps. Standard reaction mixture (final volume 300 μL) contained […] potassium phosphate buffer (pH 7.4), protein (0.1, 0.25, 0.5, 0.5 and 0.5 mg/mL concentration for CYP3A4, 2D6, 2C9 2C19 and 1A2 respectively) and compound (at eight different concentration levels ranging from […], added as 0.9 μL DMSO solution with a final DMSO concentration of […]). The mixtures were pre-incubated at 37±1° C. for 5 min. The reaction (in duplicate) was initiated by addition of 30 μL of NADPH (10 mM). Reaction was terminated at 10 min by adding 300 μL of acetonitrile. The activity of liver microsomes was confirmed with positive controls i.e., monitoring the hydroxylation of midazolam for CYP 3A4, hydroxylation of bufuralol for CYP 2D6, hydroxylation of diclofenac for CYP 2C9, hydroxylation of omeprazole for CYP2C19 and O-Deethylation for CYP 1A2. The reaction mixtures (obtained from the above studies) were extracted, processed and analyzed by LC-MS [Shimadzu SIL LC series (Kyoto, Japan) was coupled to an API-4000 Mass Spectrometer (MDS Sciex, Toronto, Canada)].

CYP3A4 = target: T2, CYP3A4 (Homo sapiens, UniProt P08684); experiment: CYP inhibition in human liver microsomes (CYP3A4); format: in vitro ADME; conditions: hydroxylation of midazolam, read-out: predicted IC50, CYP 3A4
T2 construct: assessed in human liver microsomes (procured from GIBCO Invitrogen); tissue GIBCO Invitrogen; host or cells: human liver microsomes
T2 sequence (P08684 whole entry): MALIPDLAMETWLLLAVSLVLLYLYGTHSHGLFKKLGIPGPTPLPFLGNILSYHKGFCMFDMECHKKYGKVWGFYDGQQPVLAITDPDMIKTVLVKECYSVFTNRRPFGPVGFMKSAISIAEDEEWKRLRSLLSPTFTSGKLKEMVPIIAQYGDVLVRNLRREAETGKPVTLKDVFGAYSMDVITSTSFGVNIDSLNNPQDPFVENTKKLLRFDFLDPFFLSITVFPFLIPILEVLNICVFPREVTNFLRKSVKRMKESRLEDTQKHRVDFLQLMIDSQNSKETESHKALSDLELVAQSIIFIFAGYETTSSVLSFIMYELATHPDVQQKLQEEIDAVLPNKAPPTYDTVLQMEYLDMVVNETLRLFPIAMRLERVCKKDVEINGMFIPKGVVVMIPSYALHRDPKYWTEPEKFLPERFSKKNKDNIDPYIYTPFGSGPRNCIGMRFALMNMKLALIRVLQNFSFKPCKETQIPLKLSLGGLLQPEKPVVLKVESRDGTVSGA
Protocol: as §1

PD-1/PD-L1 interaction = target: T3, PD-1/PD-L1 interaction (Homo sapiens, UniProt Q9NZQ7); experiment: PD-1/PD-L1 Homogenous Time-Resolved Fluorescence (HTRF) binding assay; conditions: Biochemical PD1/PD-L1 inhibition
T3 construct: Tag1 or Tag2 (undisclosed kit tag); purchased CisBio 63ADK000CPAPEG
T3 sequence (Q9NZQ7 19-238 limits assumed): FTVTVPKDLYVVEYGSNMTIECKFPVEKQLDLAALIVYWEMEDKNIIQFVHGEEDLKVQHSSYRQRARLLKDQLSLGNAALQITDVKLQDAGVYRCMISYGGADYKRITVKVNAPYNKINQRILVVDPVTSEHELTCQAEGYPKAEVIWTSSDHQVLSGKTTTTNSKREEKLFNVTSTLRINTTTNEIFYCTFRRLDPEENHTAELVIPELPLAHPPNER
Protocol: PD-L1 Enzyme Assay: Homogenous Time-Resolved Fluorescence (HTRF) Binding Assay
All binding studies were performed using PD-1/PD-L1 Binding Assay Kit from CisBio (Catalog #63ADK000CPAPEG), according to the manufacturer's protocol. The interaction between Tag1-PD-1 and […] was detected by anti-Tag1-Eu^3+ (HTRF donor) and anti-Tag2-XL665 (HTRF acceptor). When the donor and acceptor antibodies were brought to close proximity due to PD-1 and PD-L1 binding, excitation of the donor antibody triggered fluorescent resonance energy transfer (FRET) towards the acceptor antibody, which in turn emitted specifically at 665 nm. This specific signal is positively proportional to PD-1/PD-L1 interaction. The compounds blocking PD-1/PD-L1 interaction will cause a reduction in HTRF signal. The necessary reagents were mixed in the following order: 2 μl compounds (or diluents buffer), 4 μl PD-L1 protein, 4 μl PD-1 protein. After an incubation of 15 minutes, 5 μl of anti-Tag1-Eu^3+ and 5 μl of anti-Tag2-XL665 were added. The plate was sealed and incubated at RT for 1 h. The fluorescence emission was read at two different wavelengths (665 nm and 620 nm) on a BMG PheraStar® multiplate reader. Results were calculated from the 665 nm and 620 nm fluorescence signal and expressed in HTRF ratio=(665 nm/620 nm)×[…].

T1 sequence (P11712 whole entry): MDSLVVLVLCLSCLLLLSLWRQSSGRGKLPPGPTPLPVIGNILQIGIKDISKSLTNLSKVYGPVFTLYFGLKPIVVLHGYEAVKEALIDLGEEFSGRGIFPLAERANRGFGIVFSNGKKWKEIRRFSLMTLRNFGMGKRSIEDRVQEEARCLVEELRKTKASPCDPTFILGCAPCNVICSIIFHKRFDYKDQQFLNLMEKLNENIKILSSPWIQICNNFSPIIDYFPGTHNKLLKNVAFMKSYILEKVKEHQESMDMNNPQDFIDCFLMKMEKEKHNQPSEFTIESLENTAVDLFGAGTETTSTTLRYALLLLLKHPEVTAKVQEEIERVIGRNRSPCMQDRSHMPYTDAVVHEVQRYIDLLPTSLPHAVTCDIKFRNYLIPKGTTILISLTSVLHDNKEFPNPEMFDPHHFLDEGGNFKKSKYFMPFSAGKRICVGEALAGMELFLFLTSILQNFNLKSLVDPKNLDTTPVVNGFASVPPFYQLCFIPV

Question: Which IC50 (CYP 2C9) does the source give for `COc1nc(OCc2cccc(-c3ccccc3)c2C)nc(OC)c1CN1CCCC[C@H]1C(=O)O` [Compound 45, (S)-1-((4,6-dimethoxy-2-((2-methyl-[1,1′-biphenyl]-3-yl)methoxy)pyrimidin-5-yl)methyl)piperidine-2-carboxylic acid] here?
Answer: > 10 µM

Question: What about the IC50 (CYP3A4) of the same compound?
Answer: > 10 µM

Question: What about the IC50 (PD-1/PD-L1 interaction) of the same compound?
Answer: < 0.1 µM

Reference: US11629135B2 (JUBILANT PRODEL LLC, priority 2017, dated 2023)
